Literature values as cited in patent US10058532B2, “Methods of preventing progression to type 2 diabetes mellitus” (Vivus, Inc., priority 2013, dated 2018).
Like-named read-outs stand apart in the source and are kept apart here.

solubility (methanol and acetone): freely soluble
solubility (pH 1 to pH 8 aqueous solutions): slightly soluble
solubility (pH 9 to pH 12 aqueous solutions): sparingly soluble
SMILES: CC1(C)O[C@@H]2[C@@H](CO[C@@]3(COS(N)(=O)=O)OC(C)(C)O[C@@H]23)O1 [Topiramate, 2,3:4,5-di-O-isopropylidene-β-D-fructopyranose sulfamate]
